Here are results for eight molecules from patent US9796707B2, “Piperazine derivatives for treating disorders” (The University of Nottingham, priority 2014, dated 2017).

For data set [1], the system named is choroidal neovascularisation. Conditions: mouse CNV, eye drops, previously shown; cited from earlier work.
The conditions of data set [2]: mouse, in vivo. The method, then: Mice were treated for six days with 2 μg per eye SPHINX31 as eye drops, and ERG carried out using a Micron IV Ganzfield ERG system as recommended by the manufacturers instructions.
Scotopic ERG recordings were taken in dark adapted animals following stimulation with increasing intensities of green (FIGS. 20A, 20C, 20E, 20G) light (to activate M-cones and rods) or UV (FIGS. 20B, 20D, 20F, 20H) light (to activate S-cones and rods). […] ERG amplitude at different intensities of green (FIGS. 20C, 20E) or UV (FIGS. 20D, 20F) are shown for the A wave (FIGS. 20C, 20D) and B wave (FIGS. 20E, 20F).

Data set [3] in a line: Half life in human liver microsomes. On the technique in general: Liver microsomes are a subcellular fraction often used to study metabolism.
From the text: We also tested the half life of these compounds when exposed to human liver microsomes.
In data set [4] the test system is SRSF1 nuclear localisation in PC3 prostate cancer cells. Description: SRSF1 localisation by immunofluorescence.
For data set [5], the system named is SRSF1 nuclear localisation in MDA-MB231 cells. The data set can be described thus: SRSF1 localisation by immunofluorescence.
Data set [6] is classed as cell-based. The source says: To test whether compounds of Formula (I) are safe to administer to patients we began a basic safety test of these compounds in vitro.
Data set [7] is described as follows: Scleral permeability, modified Ussing chamber. Type of data set: in vitro ADME. Conditions: rabbit.
Method: Scleral permeability was measured using a modified Ussing chamber assembly in isotonic assay buffer (pH 7.4). Rabbit or porcine excised eye tissues were mounted in the chambers such that the episcleral side faced the donor chamber and the retinal side faced the receiver chamber. The chambers were filled with equal volumes of assay buffer, with (donor side) or without (receiver side) 1 μg/ml compound. After 4 or 24 hours tissue was removed from the chamber and the receiver side (“vitreous”) sampled. Tissue was dissected into sclera, choroid/RPE, and retina and homogenised.
After 0, 4 or 24 hours, the fluid from the bottom chamber (vitreous) and the retinal tissue was isolated and compounds purified by acetonitrile extraction and HPLC.
Another data set concerns neovascular AMD. As to conditions: 0.5 mg monthly, at one year; cited from earlier work.

Consider `O=C(Nc1cc(C(F)(F)F)ccc1N1CCN(Cc2ccncc2)CC1)c1ccc(-c2ccncc2)o1` [Compound 14], for which the “solubility in water of salt forms” value in the data set “Solubility in water” is recorded as “more freely soluble in water”.

Turning to `O=C(Nc1cc(C(F)(F)F)ccc1N1CCCCC1)c1ccncc1` [SRPIN340], in data set [1], the “eye drop concentration of maximum effect” value was 10 µg/mL.

In the case of `O=C(Nc1cc(C(F)(F)F)ccc1N1CCN(Cc2ccccn2)CC1)c1ccc(-c2ccncc2)o1` [Compound 12], the “effect on scotopic or photopic activity” value in [2] is listed as “No effect”. In addition, in the data set “Solubility in water”, the “solubility in water of salt forms” value is recorded as “more freely soluble in water”. Also, the “Half life” value in data set [3] came to 1.025 h. Further, the SRSF1 localisation result in data set [4] and in data set [5] was “inhibited cellular localisation” in each case.

For `O=C(Nc1cc(C(F)(F)F)ccc1N1CCN(Cc2cccnc2)CC1)c1ccc(-c2ccncc2)o1` [Compound 13], in the data set “Solubility in water”, the “solubility in water of salt forms” value is reported as “more freely soluble in water”.

As for `CN(C)CCN1CCN(c2ccc(C(F)(F)F)cc2NC(=O)c2ccc(-c3ccncc3)o2)CC1` [SPHINX7], the toxic doses result in data set [6] was “greater than 10 μM”.

Turning to `Cc1ccc(Nc2nccc(N(C)c3ccc4c(C)n(C)nc4c3)n2)cc1S(N)(=O)=O` [pazopanib], in data set [7] (4 hrs), the detection in retina result is given as “could not” and the “detection in vitreous (bottom chamber)” value was “could not”. Further, in data set [7] (24 hours), the “detection in vitreous (bottom chamber)” value is reported as “detected”.

Regarding `Cc1ccc(C(=O)Nc2cc(C(F)(F)F)ccc2N2CCOCC2)o1` [SPHINX], the “eye drop concentration of maximum effect” value in [1] was 10 µg/mL.

B1: Lucentis: novel humanized anti-VEGF antibody fragment (antibody, chains of the INN, looked up, V domains shown)
VH: EVQLVESGGGLVQPGGSLRLSCAASGYDFTHYGMNWVRQAPGKGLEWVGWINTYTGEPTYAADFKRRFTFSLDTSKSTAYLQMNSLRAEDTAVYYCAKYPYYYGTSHWYFDVWGQGTLVTVSS
VL: DIQLTQSPSSLSASVGDRVTITCSASQDISNYLNWYQQKPGKAPKVLIYFTSSLHSGVPSRFSGSGSGTDFTLTISSLQPEDFATYYCQQYSTVPWTFGQGTKVEIK
modifications: Fab
notes: novel humanized anti-VEGF antibody fragment
As for B1, in the data set with neovascular AMD, the “patients who maintained visual acuity (loss of <15 letters)” value is recorded as “approximately 95%” and the “patients with improved vision (gain of ≧15 letters)” value is given as ≤ 40%.
